This experiment has as its system U-251 glioblastoma viability, Alamar Blue, 8-48 h. Put plainly: cytotoxicity in U-251 CNS tumor cells – cell-based, Alamar Blue fluorescence, 8/24/48 h, dry powder, HRAS target identification, dose response (AID 720605). In general terms: Alamar Blue is a resazurin reagent that responds to reducing activity.

The structures appear in SMILES notation.

For `CC(C)(C)OC(=O)NCCOCCOCCOc1ccc(N(C(=O)CCl)C(C(=O)NCCc2ccccc2)c2cccs2)cc1Cl` (stereo not given), the AC50 (usually the concentration at which the activity in the assay is half-maximal) (measured here: 8 h treatment) was found to be 0.297 µM, the AC50 (measured here: 24 h treatment) was determined as 0.229 µM and the AC50 (measured here: 48 h treatment) came out at 0.33 µM.

For the compound `C#CCCCC(=O)NCCOCCOCCOc1ccc(N(C(=O)CCl)C(C(=O)NCCc2ccccc2)c2cccs2)cc1Cl` (stereo not given), the concentration at half-maximal activity (AC50) reads like this: (measured here: 8 h treatment) 1.99 µM; (measured here: 24 h treatment) 0.92 µM; (measured here: 48 h treatment) 0.855 µM.

In the case of `COc1ccc(N(C(=O)CCl)C(C(=O)NCCc2ccccc2)c2cccs2)cc1Cl` (stereo not given), the AC50 reads like this: (measured here: 8 h treatment) 0.0663 µM; (measured here: 24 h treatment) 0.0543 µM; (measured here: 48 h treatment) 0.051 µM.

Consider `COC(=O)c1ccc([C@@H]2c3[nH]c4ccccc4c3C[C@@H](C(=O)OC)N2C(=O)CCl)cc1`, for which the AC50 is, setting by setting: (measured here: 8 h treatment) 0.0144 µM; (measured here: 24 h treatment) 0.0427 µM; (measured here: 48 h treatment) 0.0454 µM.

Regarding `Cc1onc(C(=O)N2CCN(C(c3ccc(Cl)cc3)c3ccc(Cl)cc3)CC2)c1[N+](=O)[O-]`, the AC50 reads like this: (measured here: 8 h treatment) 0.383 µM; (measured here: 24 h treatment) 0.359 µM; (measured here: 48 h treatment) 0.293 µM.
